In assay [1] the test system is HEp-2. Nature of the assay: Cytotoxicity against Homo sapiens (human) Hep2 cells by MTT assay. Type of assay: functional, cell-based.
For assay [2], the system named is Escherichia coli. The assay is described as follows: Induction of DNA cleavage in Escherichia coli at 1 ug/ml after 2 hr by agarose gel electrophoretic analysis.
Assay [3] concerns HeLa. Nature of the assay: Cytotoxicity against Homo sapiens (human) HeLa cells by MTT assay. Type of assay: functional, cell-based. A general note: Formazan colour is commonly taken as a measure of viable cells.
For assay [4], the system named is A549. The assay is described as follows: Cytotoxicity against Homo sapiens (human) A549 cells by MTT assay. Type of assay: functional, cell-based.

For orientation: IC50 means the concentration at which inhibition is half-maximal. A high value points to weaker potency in that assay.

Calls of active or inactive are those of the source. The rule behind the calls is not given here.

Take `CC1=NNC(=O)C1C(c1c[nH]c2ccccc12)c1c(-c2ccccc2)[nH]c2ccc(C)cc12` (stereo not drawn): the results for the IC50 in assay [1], in assay [3] and in assay [4] were 3.2 µM, 2.4 µM and 1.3 µM, respectively. The result in assay [2] was Active.
On to `CC1=NNC(=O)C1C(c1c(-c2ccccc2)[nH]c2ccc(C)cc12)c1c(-c2ccccc2)[nH]c2ccc(Cl)cc12` (stereo not drawn), for which the results for the IC50 in assay [1], in assay [3] and in assay [4] were 32.4 µM, > 100 µM and 35 µM, respectively.
The like results for `CC1=NNC(=O)C1C(c1c[nH]c2ccccc12)c1c(-c2ccccc2)[nH]c2ccc(Cl)cc12` (stereo not drawn) were, in that order, > 100 µM, 3.8 µM and 1.6 µM.
With `CC1=NNC(=O)C1C(c1c(-c2ccccc2)[nH]c2ccccc12)c1c(-c2ccccc2)[nH]c2ccc(C)cc12` (stereo not drawn), the IC50 in assay [1] was > 100 µM; in assay [3], > 100 µM; in assay [4], 22.1 µM.
Consider `CC1=NNC(=O)C1C(c1c(-c2ccccc2)[nH]c2ccc(Cl)cc12)c1c(-c2ccccc2)[nH]c2ccc(Cl)cc12` (stereo not drawn), for which the IC50 is 14.6 µM in assay [1], 9.5 µM in assay [3] and 7 µM in assay [4].
Taken in the same sequence, the figures for `CC1=NNC(=O)C1C(c1c[nH]c2ccccc12)c1c(-c2ccccc2)[nH]c2ccccc12` (stereo not drawn) were 6.7 µM, 7.7 µM and 5.5 µM.
Taken in the same sequence, the figures for `COc1ccc2[nH]c(-c3ccccc3)c(C(c3c[nH]c4ccccc34)C3C(=O)NN=C3C)c2c1` (stereo not drawn) were 5.3 µM, 1.7 µM and 2.7 µM.
`COc1cccc2c1C(=O)c1c(O)c3c(c(O)c1C2=O)C[C@@](O)(C(=O)CO)C[C@@H]3O[C@H]1C[C@H](N)[C@H](O)[C@H](C)O1` [DOXORUBICIN] displayed an IC50 in assay [3] of 0.71 µM.
As to `COc1ccc2[nH]c(-c3ccccc3)c(C(c3c(-c4ccccc4)[nH]c4ccc(Cl)cc34)C3C(=O)NN=C3C)c2c1` (stereo not drawn), the IC50 in assay [1] was 6.2 µM; in assay [3], 1.2 µM; in assay [4], 1.1 µM. Besides, the result in assay [2] was Active.
Take `CC1=NNC(=O)C1C(c1c(-c2ccccc2)[nH]c2ccc(C)cc12)c1c(-c2ccccc2)[nH]c2ccc(C)cc12` (stereo not drawn): the IC50 in assay [1] is > 100 µM; in assay [3], 32.7 µM; in assay [4], 37 µM.
With `CC1=NNC(=O)C1C(c1c(-c2ccccc2)[nH]c2ccccc12)c1c(-c2ccccc2)[nH]c2ccc(Cl)cc12` (stereo not drawn), the IC50 in assay [1] was found to be 41.7 µM; in assay [3], 29.8 µM; in assay [4] it was 31.3 µM. Also, the result in assay [2] was Active.
Taken in the same sequence, the figures for `COc1ccc2[nH]c(-c3ccccc3)c(C(c3c(-c4ccccc4)[nH]c4ccc(C)cc34)C3C(=O)NN=C3C)c2c1` (stereo not drawn) were 3.5 µM, > 100 µM, 1.8 µM and “Active”.
